Assay results as given in patent US11739074B2, “Ras inhibitors” (Revolution Medicines, Inc., priority 2019, dated 2023).
Where two headings read alike, the source gives them in different places.

Columns and labels:
[1] = target: KRAS G12D (Homo sapiens, UniProt P01116+P62937, G12D); experiment: Ras-Raf disruption/FRET/MOA assay, KRAS G12D; format: biochemical
Source text: (§1) Disruption of B-Raf Ras-Binding Domain (BRAF^RBD) Interaction with K-Ras by Compounds of the Invention (Also Called a FRET Assay or an MOA Assay)
(§2) Note—The following protocol describes a procedure for monitoring disruption of K-Ras G12C (GMP-PNP) binding to BRAF^RBD by a compound of the invention. This protocol may also be executed substituting other Ras proteins or nucleotides, such as K-Ras G12D and K-Ras G13D.
(§3) The purpose of this biochemical assay was to measure the ability of test compounds to facilitate ternary complex formation between a nucleotide-loaded K-Ras isoform and Cyclophilin A; the resulting ternary complex disrupts binding to a BRAF^RBD construct, inhibiting K-Ras signaling through a RAF effector.
(§4) In assay buffer containing 25 mM HEPES pH 7.3, 0.002% Tween20, 0.1% BSA, 100 mM NaCl and 5 mM MgCl2, tagless Cyclophilin A, His6-K-Ras-GMPPNP, and GST-BRAF^RBD were combined in a 384-well assay plate at final concentrations of 25 μM, 12.5 nM, and 50 nM, respectively. Compound was present in plate wells as a 10-point 3-fold dilution series starting at a final concentration of 30 μM. After incubation at 25° C. for 3 hours, a mixture of anti-His Eu-W1024 and anti-GST allophycocyanin was then added to assay sample wells at final concentrations of 10 nM and 50 nM, respectively, and the reaction incubated for an additional 1.5 hours. […] Compounds that facilitate disruption of a K-Ras:RAF complex were identified as those eliciting a decrease in the TR-FRET ratio relative to DMSO control wells.

[2] = system: AsPC-1 (K-Ras G12D); experiment: Potency assay: pERK in AsPC-1 cells; format: cell-based; settings: Homo sapiens
[3] = target: KRAS G12C (Homo sapiens, UniProt P01116+P62937, G12C); experiment: Ras-Raf disruption/FRET/MOA assay, KRAS G12C; format: biochemical
Source text: as §1, §2, §3, §4

[4] = target: T1, NRAS G12C (Homo sapiens, UniProt P01111+P62937, G12C); experiment: Ras-Raf disruption/FRET/MOA assay, NRAS G12C; format: biochemical
T1 construct: His6
Source text: as §1, §2, §3, §4

[5] = target: KRAS G12S (Homo sapiens, UniProt P01116+P62937, G12S); experiment: Ras-Raf disruption/FRET/MOA assay, KRAS G12S; format: biochemical
Source text: as §1, §2, §3, §4

[6] = target: KRAS WT (Homo sapiens, UniProt P01116+P62937); experiment: Ras-Raf disruption/FRET/MOA assay, KRAS WT; format: biochemical
Source text: as §1, §2, §3, §4

[7] = target: KRAS G13C (Homo sapiens, UniProt P01116+P62937, G13C); experiment: Ras-Raf disruption/FRET/MOA assay, KRAS G13C; format: biochemical
Source text: as §1, §2, §3, §4

[8] = target: KRAS G13D (Homo sapiens, UniProt P01116+P62937, G13D); experiment: Ras-Raf disruption/FRET/MOA assay, KRAS G13D; format: biochemical
Source text: as §1, §2, §3, §4

[9] = system: AsPC-1 (K-Ras G12D); experiment: CellTiter-Glo cell viability assay, AsPC-1; format: cell-based; settings: Homo sapiens, ASPC1, 120 h
Summary of the method: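 Luminescence from CellTiter-Glo serves as the viability read-out after cells are treated with compound for 5 days. Each well's signal is divided by the DMSO average and multiplied by 100, and curves are fitted by four-parameter logistic regression.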

[10] = target: KRAS G12V (Homo sapiens, UniProt P01116+P62937, G12V); experiment: Ras-Raf disruption/FRET/MOA assay, KRAS G12V; format: biochemical
Source text: as §1, §2, §3, §4

[11] = disruption of BRAF RBD binding, with Cyclophilin A, read-out: KRAS G12D FRET IC50
[12] = ASPC1, AsPC-1 cells, K-Ras G12D, read-out: pERK EC50 (AsPC-1 KRAS G12D)
[13] = disruption of BRAF RBD binding, with Cyclophilin A, read-out: KRAS G12C FRET IC50
[14] = NRAS G12C, read-out: NRAS G12C FRET data IC50
[15] = disruption of BRAF RBD binding, with Cyclophilin A, read-out: KRAS G12S FRET IC50
[16] = disruption of BRAF RBD binding, with Cyclophilin A, read-out: KRAS WT FRET IC50
[17] = disruption of BRAF RBD binding, with Cyclophilin A, read-out: KRAS G13C FRET IC50
[18] = disruption of BRAF RBD binding, with Cyclophilin A, read-out: KRAS G13D FRET IC50
[19] = AsPC-1, K-Ras G12D, 5-day treatment, read-out: AsPC-1 Cell Viability IC50
[20] = disruption of BRAF RBD binding, with Cyclophilin A, read-out: KRAS G12V FRET IC50
[21] = ASPC1, read-out: pERK EC50 (AsPC-1 KRAS G12D)
[22] = read-out: AsPC-1 Cell Viability IC50

KRAS G13D, sequence (P01116 1-169 isoform P01116-2 G13D limits assumed): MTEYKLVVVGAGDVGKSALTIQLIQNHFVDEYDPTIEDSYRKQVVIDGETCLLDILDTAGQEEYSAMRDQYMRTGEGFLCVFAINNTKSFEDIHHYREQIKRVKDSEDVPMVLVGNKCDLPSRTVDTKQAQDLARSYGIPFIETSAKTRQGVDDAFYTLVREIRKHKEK
KRAS G13D, sequence (P62937 whole entry): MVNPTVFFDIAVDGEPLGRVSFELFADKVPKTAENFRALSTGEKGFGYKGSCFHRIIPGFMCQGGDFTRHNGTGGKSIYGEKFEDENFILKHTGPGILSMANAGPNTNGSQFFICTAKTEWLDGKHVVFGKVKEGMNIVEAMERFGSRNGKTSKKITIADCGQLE
KRAS G12C, sequence (P01116 1-169 isoform P01116-2 G12C limits assumed): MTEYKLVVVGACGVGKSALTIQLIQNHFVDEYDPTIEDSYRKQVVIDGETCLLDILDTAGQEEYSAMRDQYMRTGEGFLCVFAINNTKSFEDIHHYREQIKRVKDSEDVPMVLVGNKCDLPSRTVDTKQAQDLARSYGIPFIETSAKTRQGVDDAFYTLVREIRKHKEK
KRAS G12C, sequence (P62937 whole entry): as the sequence (P62937 whole entry) above
T1 sequence (P01111 whole entry G12C): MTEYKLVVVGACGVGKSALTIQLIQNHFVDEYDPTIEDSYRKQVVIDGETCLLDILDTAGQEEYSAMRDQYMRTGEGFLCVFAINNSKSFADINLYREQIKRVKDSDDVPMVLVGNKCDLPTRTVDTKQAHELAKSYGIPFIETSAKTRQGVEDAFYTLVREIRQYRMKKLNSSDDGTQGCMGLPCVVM
T1 sequence (P62937 whole entry): as the sequence (P62937 whole entry) above
KRAS G13C, sequence (P01116 1-169 isoform P01116-2 G13C limits assumed): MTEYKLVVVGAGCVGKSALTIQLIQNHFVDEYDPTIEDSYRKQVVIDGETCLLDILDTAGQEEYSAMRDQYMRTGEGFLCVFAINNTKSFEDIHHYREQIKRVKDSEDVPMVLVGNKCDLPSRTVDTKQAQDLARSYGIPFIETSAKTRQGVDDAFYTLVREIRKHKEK
KRAS G13C, sequence (P62937 whole entry): as the sequence (P62937 whole entry) above
KRAS G12V, sequence (P01116 1-169 isoform P01116-2 G12V limits assumed): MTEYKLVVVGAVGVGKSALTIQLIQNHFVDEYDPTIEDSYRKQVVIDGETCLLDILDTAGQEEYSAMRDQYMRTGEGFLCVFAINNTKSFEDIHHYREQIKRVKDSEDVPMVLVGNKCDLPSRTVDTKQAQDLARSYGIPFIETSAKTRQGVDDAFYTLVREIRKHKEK
KRAS G12V, sequence (P62937 whole entry): as the sequence (P62937 whole entry) above
KRAS WT, sequence (P01116 1-169 isoform P01116-2 limits assumed): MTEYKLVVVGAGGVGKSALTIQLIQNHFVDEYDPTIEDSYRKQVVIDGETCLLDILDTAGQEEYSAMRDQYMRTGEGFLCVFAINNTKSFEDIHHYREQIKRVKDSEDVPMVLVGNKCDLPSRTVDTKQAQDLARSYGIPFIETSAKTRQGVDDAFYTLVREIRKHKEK
KRAS WT, sequence (P62937 whole entry): as the sequence (P62937 whole entry) above
KRAS G12D, sequence (P01116 1-169 isoform P01116-2 G12D limits assumed): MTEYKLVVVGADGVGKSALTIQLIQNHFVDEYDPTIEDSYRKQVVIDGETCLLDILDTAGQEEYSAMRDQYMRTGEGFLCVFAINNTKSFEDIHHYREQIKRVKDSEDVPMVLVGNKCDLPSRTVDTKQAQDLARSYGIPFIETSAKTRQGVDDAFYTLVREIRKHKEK
KRAS G12D, sequence (P62937 whole entry, the tested form may be a part): as the sequence (P62937 whole entry) above
KRAS G12S, sequence (P01116 1-169 isoform P01116-2 G12S limits assumed): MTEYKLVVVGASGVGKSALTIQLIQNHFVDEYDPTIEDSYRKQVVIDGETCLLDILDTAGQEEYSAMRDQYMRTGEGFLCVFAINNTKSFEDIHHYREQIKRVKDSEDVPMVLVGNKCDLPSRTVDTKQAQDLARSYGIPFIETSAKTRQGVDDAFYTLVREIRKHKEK
KRAS G12S, sequence (P62937 whole entry): as the sequence (P62937 whole entry) above

SMILES | IC50 [1, 11] | EC50 [2, 12] | IC50 [3, 13] | IC50 [4, 14] | IC50 [5, 15] | IC50 [6, 16] | IC50 [7, 17] | IC50 [8, 18] | IC50 [9, 19] | IC50 [10, 20] | EC50 [2, 21] | other results
CCn1c(-c2cccnc2[C@H](C)OC)c2c3cc(ccc31)-c1cc(O)cc(c1)C[C@H](NC(=O)[C@H](C(C)C)N1CC[C@]3(CCN(C[C@@H]4CN4)C3)C1=O)C(=O)N1CCC[C@H](N1)C(=O)OCC(C)(C)C2 [Compound 176] | 100 to 1000 nM | < 5000 nM | 10 to 100 nM | 10 to 100 nM | 10 to 100 nM | 10 to 100 nM | 10 to 100 nM | 10 to 100 nM | 1000 to 10000 nM | 100 to 1000 nM | – | –
CCn1c(-c2cccnc2[C@H](C)OC)c2c3cc(ccc31)-c1cc(O)cc(c1)C[C@H](NC(=O)[C@H](C(C)C)N(C)C(=O)[C@@H]1CN(C(=O)[C@H]3CN3)C[C@@H]1C)C(=O)N1CCC[C@H](N1)C(=O)OCC(C)(C)C2 [Compound 88] | 10 to 100 nM | < 5000 nM | < 10 nM | < 10 nM | 10 to 100 nM | 10 to 100 nM | 10 to 100 nM | 10 to 100 nM | 100 to 1000 nM | 10 to 100 nM | – | –
CCn1c(-c2cnccc2COC)c2c3cc(ccc31)-c1cc(O)cc(c1)C[C@H](NC(=O)[C@H](C(C)C)N(C)C(=O)CN(C)C(=O)[C@@H]1CN1C(C)=O)C(=O)N1CCC[C@H](N1)C(=O)OCC(C)(C)C2 [Compound 35] | 100 to 1000 nM | – | 10 to 100 nM | 10 to 100 nM | 10 to 100 nM | 10 to 100 nM | 10 to 100 nM | 100 to 1000 nM | – | 100 to 1000 nM | < 5000 nM | IC50 [9, 22]: 1000 to 10000 nM
CCn1c(-c2cnccc2COC)c2c3cc(ccc31)-c1cc(O)cc(c1)C[C@H](NC(=O)[C@H](C(C)C)N(C)C(=O)CN(C)C(=O)[C@H]1[C@@H](C)N1[S@+]([O-])C(C)(C)C)C(=O)N1CCC[C@H](N1)C(=O)OCC(C)(C)C2 (stereo partly shown) [Compound 53] | 100 to 1000 nM | – | 10 to 100 nM | 10 to 100 nM | 10 to 100 nM | 10 to 100 nM | 10 to 100 nM | 100 to 1000 nM | – | 100 to 1000 nM | < 5000 nM | IC50 [9, 22]: 1000 to 10000 nM
CCn1c(-c2cccnc2[C@H](C)OC)c2c3cc(ccc31)-c1cc(O)cc(c1)C[C@H](NC(=O)[C@H](C(C)C)N1CC[C@@]3(CCN(C[C@H]4CN4)C3)C1=O)C(=O)N1CCC[C@H](N1)C(=O)OCC(C)(C)C2 [Compound 193] | 100 to 1000 nM | < 5000 nM | 10 to 100 nM | 10 to 100 nM | 100 to 1000 nM | 10 to 100 nM | 10 to 100 nM | 10 to 100 nM | 1000 to 10000 nM | 1000 to 10000 nM | – | –
CCn1c(-c2cccnc2[C@H](C)OC)c2c3cc(ccc31)-c1cc(O)cc(c1)C[C@H](NC(=O)[C@H](C(C)C)N(C)C(=O)CN(C)C(=O)[C@H]1N[C@H]1C1CC1)C(=O)N1CCC[C@H](N1)C(=O)OCC(C)(C)C2 [Compound 134] | – | – | – | – | – | – | – | – | – | – | < 5000 nM | IC50 [1]: 100 to 1000 nM; IC50 [3]: 10 to 100 nM; IC50 ([4]; NRAS G12C FRET data IC50, NRAS G12C): 10 to 100 nM; IC50 [5]: 10 to 100 nM; IC50 [6]: 10 to 100 nM; IC50 [7]: 10 to 100 nM; IC50 [8]: 100 to 1000 nM; IC50 ([9]; read-out: AsPC-1 Cell Viability IC50, AsPC-1, K-Ras G12D, 5-day treatment): 1000 to 10000 nM; IC50 [10]: 100 to 1000 nM
CCn1c(-c2cnccc2COC)c2c3cc(ccc31)-c1cc(O)cc(c1)C[C@H](NC(=O)[C@H](C(C)C)N(C)C(=O)[C@H]1CCN(C(=O)N3C[C@@H]3C(=O)OC)C1)C(=O)N1CCC[C@H](N1)C(=O)OCC(C)(C)C2 [Compound 94] | 1000 to 10000 nM | < 5000 nM | 10 to 100 nM | 100 to 1000 nM | 100 to 1000 nM | 100 to 1000 nM | 10 to 100 nM | 100 to 1000 nM | > 10000 nM | 100 to 1000 nM | – | –
